In the NIST ThermoML archive (doi:10.1016/j.tca.2006.02.034) one finds Triple point temperature data, which are given here for one compound.

± gives the expanded uncertainty stated by the source.

The conditions of this series: Crystal; Adiabatic calorimetry.

For the compound `CCCC[n+]1ccn(C)c1.O=S(=O)([N-]S(=O)(=O)C(F)(F)F)C(F)(F)F`, the Triple point temperature amounted to 270.22 ± 0.05 K.
